Source: ChEMBL document CHEMBL5528010, “The discovery of aryl-2-nitroethyl triamino pyrimidines as anti-Trypanosoma brucei agents” (Eur J Med Chem, 2024)

What was measured:
[1] = Selectivity index, ratio of CC50 for human THP-1 cells to EC50 for bloodstream form Trypanosoma brucei; format: toxicity; settings: read-out: Ratio CC50/EC50
Pteridine reductase 1 = target: T1, Pteridine reductase 1 (Leishmania major, UniProt Q01782); experiment: Inhibition of N-terminal his 6 tagged recombinant Leishmania major PTR1 expressed in Escherichia coli BL21 (DE3) cells preincubated for 10 mins followed by NADPH addition and measured after 10 to 50 mins by multilabel plate reader method
T1 sequence (Q01782 whole entry): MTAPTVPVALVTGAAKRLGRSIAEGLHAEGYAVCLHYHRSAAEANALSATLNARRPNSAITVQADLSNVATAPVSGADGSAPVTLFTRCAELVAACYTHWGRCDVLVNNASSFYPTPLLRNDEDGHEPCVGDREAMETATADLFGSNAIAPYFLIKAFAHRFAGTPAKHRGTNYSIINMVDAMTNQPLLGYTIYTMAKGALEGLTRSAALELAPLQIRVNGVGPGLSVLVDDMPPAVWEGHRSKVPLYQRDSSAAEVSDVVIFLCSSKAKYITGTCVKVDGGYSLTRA

Leishmania infantum = experiment: Antiparasitic activity against Leishmania infantum intracellular amastigotes MHOM/BR/1972/BH46 infected in human THP-1 cells assessed as inhibition of parasitic growth at 50 uM pre-infected for 24 hrs followed by compound addition and measured after 48 hrs relative to control; format: functional; settings: MHOM/BR/1972/BH46, THP-1
Trypanosoma brucei [2] = experiment: Antiparasitic activity against blood stream form Trypanosoma brucei assessed as parasitic growth inhibition incubated for 72 hrs by resazurin dye based fluorescence analysis; format: functional, organism-based
[3] = Inhibition of N-terminal his 6 tagged recombinant Trypanosoma brucei PTR1 expressed in Escherichia coli BL21 (DE3) cells preincubated for 10 mins followed by NADPH addition and measured after 10 to 50 mins by multilabel plate reader method; format: cell-based
THP-1 = experiment: Cytotoxicity against human THP-1 cells assessed as reduction in cell viability measured after 72 hrs by MTT assay; format: functional
Trypanosoma brucei [4] = experiment: Antiparasitic activity against blood stream form Trypanosoma brucei assessed as parasitic growth inhibition at 10 uM incubated for 72 hrs by resazurin dye based fluorescence analysis relative to control; format: functional; parameters: scale not given: the % may be the effect or the level left
[5] = Half life in BALB/c mouse at 20 mg/kg, po measured upto 24 hrs by LC-MS/MS analysis; format: ADME, organism-based; settings: in vivo
[6] = Cmax in BALB/c mouse at 20 mg/kg, po measured upto 24 hrs by LC-MS/MS analysis; format: ADME, organism-based; settings: in vivo
[7] = Tmax in BALB/c mouse at 20 mg/kg, po measured upto 24 hrs by LC-MS/MS analysis; format: ADME, organism-based; settings: in vivo
[8] = AUC last in BALB/c mouse at 20 mg/kg, po measured upto 24 hrs by LC-MS/MS analysis; format: ADME, organism-based; settings: in vivo

| Structure (SMILES) | selectivity ratio [1] | IC50 (Pteridine reductase 1) | inhibition at 50 µM (Leishmania infantum) | EC50 (Trypanosoma brucei [2]) | IC50 [3] | CC50 (THP-1) | Activity (Trypanosoma brucei [4]) | half-life [5] | Cmax [6] | Tmax [7] | AUC(0-t) at 24 h [8] |
| --- | --- | --- | --- | --- | --- | --- | --- | --- | --- | --- | --- |
| COc1cccc(OC)c1C(C[N+](=O)[O-])c1c(N)nc(N)nc1N (stereo not given) | 7 | 70700 nM | 79.8% | 1680 nM | 130 nM | 12500 nM | – | – | – | – | – |
| COc1ccc(C(C[N+](=O)[O-])c2c(N)nc(N)nc2N)cc1OC (stereo not given) | 11 | 2400 nM | 62.4% | 2330 nM | 120 nM | 25000 nM | – | – | – | – | – |
| CCc1nc(N)nc(N)c1-c1ccc(Cl)cc1 [PYRIMETHAMINE] | – | – | – | – | 90 nM | – | – | – | – | – | – |
| Nc1nc(N)c(C(C[N+](=O)[O-])c2cccc(Br)c2)c(N)n1 (stereo not given) | 118 | 58100 nM | 30.2% | 650 nM | 50 nM | 50000 nM | – | – | – | – | – |
| Nc1nc(N)c(C(C[N+](=O)[O-])c2ccccc2OCc2ccccc2[N+](=O)[O-])c(N)n1 (stereo not given) | – | 46200 nM | 11.7% | – | 260 nM | – | 48% | – | – | – | – |
| Nc1nc(N)c(C(C[N+](=O)[O-])c2ccc3c(c2)OCCO3)c(N)n1 (stereo not given) | 11 | 2500 nM | 54.4% | 1110 nM | 230 nM | 12500 nM | – | 4.5 h | 25 ng/mL | 1 h | 107 ng·h/mL |
| Nc1nc(N)c(C(C[N+](=O)[O-])c2ccc3c(c2)CCO3)c(N)n1 (stereo not given) | 11 | 21300 nM | 21.1% | 4400 nM | 390 nM | 50000 nM | – | – | – | – | – |
| Nc1nc(N)c(C(C[N+](=O)[O-])c2ccccc2OCc2cccc(Cl)c2)c(N)n1 (stereo not given) | 31 | 51300 nM | 61% | 400 nM | 600 nM | 12500 nM | – | 2.4 h | 446 ng/mL | 0.5 h | 1820 ng·h/mL |
| Nc1nc(N)c(C(C[N+](=O)[O-])c2c[nH]c3ccccc23)c(N)n1 (stereo not given) | – | 13900 nM | 4% | – | < 100 nM | – | 28% | – | – | – | – |
| Cc1ccc(C(C[N+](=O)[O-])c2c(N)nc(N)nc2N)s1 (stereo not given) | 42 | – | 15.4% | 2410 nM | 390 nM | 100000 nM | – | – | – | – | – |
| Nc1nc(N)c(C(C[N+](=O)[O-])c2cccc3c2OCO3)c(N)n1 (stereo not given) | 10 | 47600 nM | 36% | 1210 nM | 30 nM | 12500 nM | – | 2.1 h | 399 ng/mL | 0.5 h | 2700 ng·h/mL |
| Nc1nc(N)c(C(C[N+](=O)[O-])c2cccc([N+](=O)[O-])c2)c(N)n1 (stereo not given) | 42 | 63400 nM | 74.2% | 1190 nM | < 100 nM | 50000 nM | – | – | – | – | – |
| Nc1nc(N)c(C(C[N+](=O)[O-])c2ccc(OCc3ccc(Cl)c(Cl)c3)cc2)c(N)n1 (stereo not given) | 147 | 49700 nM | 11.4% | 340 nM | 220 nM | 50000 nM | – | 3 h | 63 ng/mL | 2 h | 435 ng·h/mL |
| Nc1cc(N)nc(N)n1 | – | 4010 nM | – | – | 2380 nM | – | – | – | – | – | – |
| Nc1nc(N)c(C(C[N+](=O)[O-])c2ccco2)c(N)n1 (stereo not given) | 10 | 63800 nM | – | 5050 nM | 160 nM | 50000 nM | – | – | – | – | – |
| Nc1nc(N)c(C(C[N+](=O)[O-])c2ccc3c(c2)OCO3)c(N)n1 (stereo not given) | 50 | – | – | 500 nM | 250 nM | 25000 nM | – | – | – | – | – |
| Nc1nc(N)c(C(C[N+](=O)[O-])c2ccc(Cl)c(Cl)c2)c(N)n1 (stereo not given) | 31 | 60200 nM | 53.9% | 820 nM | 150 nM | 25000 nM | – | – | – | – | – |
| CCCCCCCCCCCCCCCCOP(=O)([O-])OCC[N+](C)(C)C [MILTEFOSINE] | – | – | 1.29% | – | – | – | – | – | – | – | – |
| Nc1nc(N)c(C(C[N+](=O)[O-])c2ccc(Br)cc2)c(N)n1 (stereo not given) | 16 | 64100 nM | 83.4% | 1590 nM | < 100 nM | 25000 nM | – | – | – | – | – |
| COc1cc(C(C[N+](=O)[O-])c2c(N)nc(N)nc2N)ccc1O (stereo not given) | 23 | 19800 nM | 21.6% | 2130 nM | 70 nM | 50000 nM | – | – | – | – | – |
| Nc1nc(N)c(C(C[N+](=O)[O-])c2ccccc2OCc2ccccc2)c(N)n1 (stereo not given) | > 167 | 51300 nM | 81.1% | 600 nM | 240 nM | > 100000 nM | – | – | – | – | – |
| Nc1nc(N)c(C(C[N+](=O)[O-])c2ccc(Cl)cc2)c(N)n1 (stereo not given) | 19 | – | – | 1280 nM | < 100 nM | 25000 nM | – | – | – | – | – |
| Nc1nc(N)c(C(C[N+](=O)[O-])c2cccs2)c(N)n1 (stereo not given) | 15 | 4900 nM | 22.5% | 3330 nM | 190 nM | 50000 nM | – | – | – | – | – |
